Data on 9 molecules can be found in article PMC9552234.

This data set is described as follows: amide bond formation (macrolactamization of free amino acid tripeptides containing anthranilic acid), HATU (1.2 equiv), Et3N (1.2 equiv), high dilution. Conditions: 10-membered ring, CH2Cl2, 3.0 mM, 0.0 °C, 2 steps.

Turning to `CC(=O)N1c2ccccc2[C@H]2C[C@H]3C(=O)N[C@@H](C(C)C)C(=O)Nc4ccccc4C(=O)N3[C@H]21` (mixture of isomers) [endo-47 -> endo-48 (1 step, from exo/endo mixture)], the ring closure, yield over several steps (from CC(=O)N1c2ccccc2[C@H]2C[C@@H](C(=O)N[C@H](C(=O)Nc3ccccc3C(=O)O)C(C)C)N[C@H]21, 1.0 h) is 19%.

On to `CC(=O)N1c2ccccc2[C@@H]2C[C@H]3C(=O)N[C@@H](C(C)C)C(=O)Nc4ccccc4C(=O)N3[C@@H]21` (mixture of isomers) [exo-47 -> exo-48 (1 step, from exo/endo mixture)], for which the ring closure, yield over several steps (from CC(=O)N1c2ccccc2[C@@H]2C[C@@H](C(=O)N[C@H](C(=O)Nc3ccccc3C(=O)O)C(C)C)N[C@@H]21, 1.0 h) amounted to 29%. In the case of `CC(=O)n1cc(C[C@H]2NC(=O)c3ccccc3NC(=O)[C@H](C(C)C)NC2=O)c2ccccc21` [H-D-Trp(1-Ac)-Val-Abz(2)-OH], the ring closure, yield over several steps (from CC(=O)n1cc(C[C@@H](N)C(=O)N[C@H](C(=O)Nc2ccccc2C(=O)O)C(C)C)c2ccccc21, 1.17 h) was determined as 53%.

Regarding `CC(C)[C@@H]1NC(=O)[C@@H](Cc2cn(C(=O)OC(C)(C)C)c3ccccc23)NC(=O)c2ccccc2NC1=O` [H-D-Trp(1-Boc)-Val-Abz(2)-OH], the ring closure, yield over several steps (from CC(C)[C@H](NC(=O)[C@H](N)Cc1cn(C(=O)OC(C)(C)C)c2ccccc12)C(=O)Nc1ccccc1C(=O)O, 0.83 h) came out at 56%.

Take `CC(=O)n1cc(C[C@@H]2NC(=O)c3ccccc3NC(=O)[C@H](C(C)C)NC2=O)c2ccccc21` [H-Trp(1-Ac)-Val-Abz(2)-OH]: the ring closure, yield over several steps (from CC(=O)n1cc(C[C@H](N)C(=O)N[C@H](C(=O)Nc2ccccc2C(=O)O)C(C)C)c2ccccc21) was found to be 0%. For `C=CC(C)(C)[C@]12C[C@H]3C(=O)N[C@@H](C(C)C)C(=O)Nc4ccccc4C(=O)N3[C@H]1N(C(C)=O)c1ccccc12` [endo-69 -> L-Trp-endo-11 (slow addition; decomposition)], the ring closure, yield over several steps (from C=CC(C)(C)[C@]12C[C@@H](C(=O)O)N(C(=O)c3ccccc3NC(=O)[C@@H](N)C(C)C)[C@H]1N(C(C)=O)c1ccccc12) is 0%. With `C=CC(C)(C)[C@]12C[C@H]3C(=O)N[C@@H](C(C)C)C(=O)Nc4ccccc4C(=O)N3[C@H]1N(C(C)=O)c1ccccc12` [endo-75 -> L-Trp-endo-11 (incl. Boc removal)], the ring closure, yield over several steps (from C=CC(C)(C)[C@]12C[C@@H](C(=O)N[C@H](C(=O)Nc3ccccc3C(=O)O)C(C)C)N[C@H]1N(C(C)=O)c1ccccc12, 2.0 h) amounted to 87%. Turning to `C=CC(C)(C)[C@@]12C[C@H]3C(=O)N[C@@H](C(C)C)C(=O)Nc4ccccc4C(=O)N3[C@@H]1N(C(C)=O)c1ccccc12` [exo-69 -> L-Trp-exo-11 (slow addition; trace)], the ring closure, yield over several steps (from C=CC(C)(C)[C@@]12C[C@@H](C(=O)O)N(C(=O)c3ccccc3NC(=O)[C@@H](N)C(C)C)[C@@H]1N(C(C)=O)c1ccccc12) amounted to 0%. As for `C=CC(C)(C)[C@@]12C[C@H]3C(=O)N[C@@H](C(C)C)C(=O)Nc4ccccc4C(=O)N3[C@@H]1N(C(C)=O)c1ccccc12` [exo-75 -> L-Trp-exo-11 (incl. Boc removal)], the ring closure, yield over several steps (from C=CC(C)(C)[C@@]12C[C@@H](C(=O)N[C@H](C(=O)Nc3ccccc3C(=O)O)C(C)C)N[C@@H]1N(C(C)=O)c1ccccc12, 1.5 h) was 97%.
